# Source: patent US5015661A, “Chromanes and their pharmaceutical compositions and methods” (Hoffmann-La Roche Inc., priority 1989, dated 1991)
# Biological target: T1, Δ^5 -lipoxygenase from rat basophilic leukemia (RBL-1) cells (Rattus norvegicus, UniProt P12527)
# T1 construct: endogenous in cells; host or cells: RBL-1 rat basophilic leukemia cells (ATCC CRL 1378); 113,000×g supernatant (cytosolic fraction)
# T1 sequence (P12527 1-673): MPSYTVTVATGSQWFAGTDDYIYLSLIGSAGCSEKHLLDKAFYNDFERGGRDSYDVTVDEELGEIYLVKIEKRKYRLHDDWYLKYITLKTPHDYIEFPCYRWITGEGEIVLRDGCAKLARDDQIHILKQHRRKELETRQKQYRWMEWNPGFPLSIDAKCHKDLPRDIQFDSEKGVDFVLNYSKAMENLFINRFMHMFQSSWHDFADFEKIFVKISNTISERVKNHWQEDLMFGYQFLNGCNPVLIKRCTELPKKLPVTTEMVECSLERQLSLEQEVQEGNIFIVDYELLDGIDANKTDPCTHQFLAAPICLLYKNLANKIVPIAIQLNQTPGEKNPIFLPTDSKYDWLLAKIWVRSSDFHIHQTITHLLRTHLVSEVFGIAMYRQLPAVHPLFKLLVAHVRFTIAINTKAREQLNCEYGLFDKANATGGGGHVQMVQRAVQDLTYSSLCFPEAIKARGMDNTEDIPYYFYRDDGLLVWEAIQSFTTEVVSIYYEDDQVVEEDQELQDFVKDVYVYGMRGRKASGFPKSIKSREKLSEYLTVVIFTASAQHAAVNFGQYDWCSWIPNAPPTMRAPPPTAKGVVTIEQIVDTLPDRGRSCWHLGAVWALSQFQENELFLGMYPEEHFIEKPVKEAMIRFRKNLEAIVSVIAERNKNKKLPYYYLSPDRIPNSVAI
# Assay: In vitro test for Δ^5 -lipoxygenase inhibitors (5-LO), RBL-1 cell enzyme, 5-HETE radioimmunoassay
# Format: biochemical
# Settings: RBL-1 5-LO; 10 min preincubation; 8.25 μM arachidonic acid, 10 min at 37° C.; 5-HETE formation; read-out: 5-LO IC-50
# Experimental: IN VITRO TEST FOR Δ^5 -LIPOXYGENASE INHIBITORS Compounds of formula I of the invention were tested for their effect on Δ^5 -lipoxygenase from rat basophilic leukemia (RBL-1) cells. Materials. RBL-1 cells (CRL 1378) were obtained from the American TYpe Culture Collection, Rockville, MD. DMEM and glutamine were purchased from Flow Labs, McLean, VA. FBS (Gibco, Grand Island, NY) was heat-inactivated for 1 hour at 56° C. Reagents for protein determinations were obtained from Biorad, Rockville Center, NY. Arachidonic acid (approx. 99%), ATP (disodium slat), BHT, dextran (clinical grade), tetrasodium EDTA, gelatin, gentamycin sulfate solution, reduced glutathione, 1 M HEPES buffer, indomethacin, NaCl, reduced NADpH, Trizma 7.2, and Trizma 8.5 were purchased from Sigma Chemical, St. Louis, MO. CaCl2 dihydrate, Norit A charcoal, and citric acid monohydrate were obtained from Fisher Scientific, Pittsburgh, PA. […] MA. A synthetic 5-HETE standard was supplied by Dr. M. Rosenberger, Dept. of Medicinal Chemistry, Hoffmann-La Roche, Nutley, NJ; [see Corey, E.J., and Hashimoto, S. (1981 ) Tet. Letters, 22, 299-302 for method of preparation]. Ecoscint liquid sointillation fluid was purchased from National Diagnostics, Sommerville, NJ. Isolation of 5-lipoxygenase. […] Approximately 7-9 days after thawing, RBL-1 cells growing in log phase were seeded at a density of 7500 viable cells/ml in a closed 89-liter spinner flask. The cells were stirred constantly for 3-4 days at 37° C. until they reached a density greater than 500,000/ml but less than 800,00/ml. RBL-1 cells were harvested by centrifugation at 4° C. at 1500×g for 10 minutes and were washed 3 times with ice cold 0.05 M tris-HCl, pH 7.2, tetrasodium EDTA (buffer 1). The cells were washed last in 0.05 M Tris-HCl containing 14 μM indomethacin, 1 mM glutathione, 1.5 mM NaCl, and 1 mM tetrasodium EDTA (buffer 2), resuspended at a density of 5×108'/ml (approximately 10 ml) and disrupted manually at 4° C. using a 40 ml Dounce (type A pestle) homogenizer. After 5 minutes of homogenization. 95% cell lysis was confirmed by phase contrast microscopy. The broken cells were diluted 1:2 with buffer 2 and centrifuged at 12,380×g for 10 minutes at 4° C. to pellet cellular debris and granules. The 12,380×g supernatant was centrifuged at 113,000×g for 60 minutes to pellet microsomes. The high-speed supernatant (5.9±0.48 mg/ml protein) was frozen immediately in 1 ml aliquots using a dry ice/acetone bath. The isolated cytosolic fraction was stored in liquid N2 for up to 8 weeks without loss of 5-LO enzyme activity. Lipoxygenase Assay. Compounds Were dissolved at 25 mM concentration in DMSO, then diluted to final concentrations using 95% ethanol. For a typical enzyme assay, the partially purified 5-LO preparation was preincubated with drug or vehicle for 10 minutes at 30° C. The assay tubes were then transferred at a 37° C. water bath where they received arachidonic acid (8.25 μM final concentration) to initiate 5-LO activity. In addition to enzyme and substrate, each reaction tube contained: 12.5 μmoles of Tris-HCl (pH 7.2), 25 nmoles glutathione, 0.35 nmoles indomethacin and 1.25 μmoles of CaCl2 and ATP to yield a total of volume of 250 μl. The enzyme reaction was terminated after 10 minutes by the addition of 75μl […] citric acid to yield pH 3.5. The samples were immediately cooled on ice and neutralized by dilution with 0.05 M Tris-HCl, pH 8.5, which contained 25 mg/1 BHT. A boiled cytosol control was placed at the end of each assay to measure non-enzymatic oxidation of arachidonic acid. The mean specific activity of the 5-LO enzyme preparation was approximately 66.16±14.39 pmol 5-HETE/min/mg protein. Radioimmunoassay for 5-HETE. Under the assay conditions described, the 5-LO catalyzed the conversion of arachidonic acid to 5-HPETE which, as a consequence o peroxidase activity, was reduced to 5-HETE. A specific radioimmunoassay was employed to quantitate the amount (pmoles) of 5-HETE formed during the enzyme reaction. […]
row,Compound,IC50
1,"Cc1c(C)c2c(c(C)c1O)CCC(C)(C#Cc1ccccc1)O2 (racemic) [Example 1, rac-3,4-Dihydro-2,5,7,8-tetramethyl-2-(phenylethynyl)-2H-1-benzopyran-6-ol]",40 nM
2,"Cc1c(C)c2c(c(C)c1O)CCC(C)(C#Cc1cccs1)O2 (racemic) [Example 4, rac-3,4-Dihydro-2,5,7,8-tetramethyl-2-[(2-thienyl)ethynyl]-2H-1-benzopyran-6-ol]",23 nM
3,"Cc1c(C)c2c(c(C)c1O)CCC(C)(C#Cc1cccnc1)O2 (racemic) [Example 14, rac-3,4-Dihydro-2,5,7,8-tetramethyl-2-[(3-pyridinyl)ethynyl]-2H-1-benzopyran-6-ol]",40 nM
4,"Cc1c(C)c2c(c(C)c1O)CCC(C)(C#Cc1ccccn1)O2 (racemic) [Example 15, rac-3,4-Dihydro-2,5,7,8-tetramethyl1-2-[(2-pyridinyl)ethynyl]-2H-1-benzopyran-6-ol]",16 nM
5,"Cc1c(C)c2c(c(C)c1O)CCC(C)(C#Cc1csc3ccccc13)O2 (racemic) [Example 16, rac-[2-(Benzo[b]thiophen-3-yl)ethynyl]-3.4-dihydro-2,5,7,8-tetramethyl-2H-1-benzopyran-2H-1-benzopyran-6-ol]",1.6 nM
6,"COc1ccc(C#CC2(C)CCc3c(C)c(O)c(C)c(C)c3O2)cc1OC(C)=O (racemic) [Example 20, rac-2-[(3-Acetyloxy-4-methoxyphenyl)ethynyl]-3.4-dihydro-2,5,7,8-tetramethyl-2H-1-benzopyran-6-ol]",24 nM
7,"COc1cccc(C#CC2(C)CCc3c(C)c(O)c(C)c(C)c3O2)c1 (racemic) [Example 22, rac-3,4-Dihydro-2-(3-methoxyphenyl)ethynyl)-2,5,7,8-tetra-methyl-2H-1-benzopyran-6-ol]",170 nM
8,"COC(=O)c1cc(C#CC2(C)CCc3c(C)c(O)c(C)c(C)c3O2)ccc1O (racemic) [Example 23, rac-5-(3,4-Dihydro-6-hydroxy-2,5,7,8-tetramethyl-2H-1-benzopyran-2-yl)ethynyl]-2-hydroxybenzoic acid methyl ester]",160 nM
9,"Cc1c(C)c2c(c(C)c1O)CCC(C)(C#Cc1ccc(-c3cccnc3)cc1)O2 (racemic) [Example 24, rac-3,4-Dihydro-2,5,7,8-tetramethyl-2-{[4-(3-pyridinyl)-phenyl]ethynyl}-2H-1-benzopyran-6-ol]",160 nM
10,"Cc1c(C)c2c(c(C)c1O)CCC(C)(C#Cc1ccc(-c3ccccn3)s1)O2 (racemic) [Example 26, rac-3,4-Dihydro-2,5,7,8-tetramethyl-2-{[5-(2-pyridinyl)-2-thienyl]ethynyl}-2H-1-benzopyran-6-ol]",160 nM
11,"COc1cc(C=O)cc(C#CC2(C)CCc3c(C)c(O)c(C)c(C)c3O2)c1O (racemic) [Example 28, rac-3-[(3,4-Dihydro-6-hydroxy-2,5,7,8-tetramethyl-2H-1-benzopyran-2-yl)ethynyl]-4-hydroxy-5-methoxybenzaldehyde]",130 nM
12,"COc1cc(CO)cc(C#CC2(C)CCc3c(C)c(O)c(C)c(C)c3O2)c1O (racemic) [Example 29, rac-3-[(3,4-Dihydro-6-hydroxy-2,5,7,8-tetramethyl-2H-1-benzopyran-2-yl)ethynyl]-4-hydroxy-5-methoxybenzenemethanol]",130 nM
13,"COc1cc(C=NO)cc(C#CC2(C)CCc3c(C)c(O)c(C)c(C)c3O2)c1O (racemic) [Example 30, rac-3-[(3,4-Dihydro-6-hydroxy-2,5,7,8-tetramethyl-2H-1-benzopyran-2yl)ethynyl]-4-hydroxy-5-methoxybenzaldehydeoxime]",160 nM
14,"CCCCc1ccc(C#CC2(C)CCc3c(C)c(O)c(C)c(C)c3O2)s1 (racemic) [Example 31, rac-2-[(5-Butyl-2-thienyl)ethynyl]-3,4-dihydro-2,5,7,8-tetramethyl-2H-1-benzopyran-6-ol]",1000 nM
15,"Cc1c(C)c2c(c(C)c1O)CCC(C)(C#Cc1cnc3ccccc3c1)O2 (racemic) [Example 33, rac-3,4-Dihydro-2,5,7,8-tetramethyl-2-(3-quinolinylethynyl)-2H-1-benzopyran-6-ol]",160 nM
16,"Cc1c(C)c2c(c(C)c1O)CCC(C)(C#Cc1cncc3ccccc13)O2 (racemic) [Example 34, rac-3,4-Dihydro-2-[(4-isoquinolinyl)ethynyl]-2,5,7,8-tetramethyl-2H-1-benzopyran-6-ol]",1000 nM
17,"Cc1c(C)c2c(c(C)c1O)CCC(C)(C#Cc1cccc(C(F)(F)F)c1)O2 (racemic) [Example 35, rac-2-{[3-(Trifluoromethyl)phenyl]ethynyl-3,4-dihydro-2,5,7,8-tetramethyl-2H-1-benzopyran-6-ol]",190 nM
18,"Cc1c(C)c2c(c(C)c1O)CCC(C)(C#Cc1ccc(F)c(F)c1)O2 (racemic) [Example 36, rac-2-[(3,4-Difluorophenyl)ethynyl]-3,4-dihydro-2,5,7,8-tetramethyl-2H-1-benzopyran-6-ol]",120 nM
19,"Cc1c(C)c2c(c(C)c1O)CCC(C)(C#Cc1cccc3ccccc13)O2 (racemic) [Example 39, rac-3,4-Dihydro-2,5,7,8-tetramethyl-2-(1-naphthyl)ethynyl-2H-1-benzopyran-6-ol]",500 nM
20,"Cc1c(C)c2c(c(C)c1O)CCC(C)(C#Cc1ccccc1N)O2 (racemic) [Example 40, rac-2-[(2-Aminophenyl)ethynyl]-3,4-dihydro-2,5,7,8-tetramethyl-2H-1-benzopyran-6-ol]",20 nM
21,"CC(=O)Oc1cc(C#CC2(C)CCc3c(C)c(O)c(C)c(C)c3O2)ccc1OCc1ccccc1 (racemic) [Example 41, rac-2-{[3-Acetyloxy-4-(phenylmethoxy)phenyl]ethynyl}-3,4-dihydro-2,5,7,8-tetramethyl-2H-1-benzopyran-6-ol]",32 nM
22,"Cc1c(C)c2c(c(C)c1O)CCC(C)(C#Cc1ccc(OCc3ccccc3)c(O)c1)O2 (racemic) [Example 43, rac-3,4-Dihydro-2-{[3-hydroxy-4-(phenylmethoxY)phenyl]-ethynyl}-2,5,7,8-tetramethyl-2H-1-benzopyran-6-ol]",24 nM
